Earlier results on four compounds are cited in patent US20180272346A1, “MODULAR ORGAN MICROPHYSIOLOGICAL SYSTEM WITH MICROBIOME” (Massachusetts Institute of Technology, priority 2017, published 2018).

In data set [1] the test system is human hepatocytes and kupffer cells co-culture.
For data set [2], the system named is immune-competent gut-liver interacted MPS. The conditions noted are these: tolcapone added to gut MPS ("oral").
Data set [3] relates to immune-competent liver MPS (hepatocytes and Kupffer cells).
The test system of data set [4] is immune-competent gut MPS (Caco2, HT29-MTX, dendritic cells).
For data set [5] the following is noted: oral, in vivo; read-out: maximum measured plasma concentration, Cmax.
Data set [6] deals with 7-way MPS platform (gut, liver and other MPSs).

Take “Lipopolysaccharide [Lipopolysaccharide (LPS)]”: the “lowest LPS stimulus the co-cultures were responsive to” value in data set [1] (hepatocyte-Kupffer co-culture) is 0.01 µg/mL.

With `Cc1ccc(C(=O)c2cc(O)c(O)c([N+](=O)[O-])c2)cc1` [Tolcapone], in data set [2], the “MPS-specific cell death markers” value was “suffered from MPS-specific cell death markers”; the “generic cell death marker” value is listed as “insensitive”; the “gut and liver MPS function” value was “MPS-specific loss of function”. Besides, in data set [3], the cell death result is recorded as “caused cell death” and the mitochondrial activity result is given as “decreased”. Also, in data set [4], the cell death result is listed as “severe cellular death” and the epithelial function entry is on record as “complete loss of epithelial function”. For the same compound, the “function and cellular death” value in the data set with endometrium MPS is “loss of function correlating with cellular death”.

As to `O=C(O)Cc1ccccc1Nc1c(Cl)cccc1Cl` [Diclofenac, diclofenac], in data set [5], the Cmax is 2 to 6 µM. For the same compound, the “absorption and distribution across MPS compartments” value in data set [6] is recorded as “absorbed across the gut epithelial barrier”. For the same compound, in data set [6] (diclofenac added to apical side of gut MPS, estimated), the “unbound intrinsic clearance (CL_int(u))” value is 13.90 µL/min. Moreover, the “fraction of clearance towards formation of the 4-OH-DCF metabolite” value in data set [6] (estimated) is “approximately 19%”. In data set [3], the cell death entry is “minimal”. Also, in the data set on endometrium MPS, the “function and cellular death” value was “loss of function correlating with cellular death”.

In the case of `C[C@]12CCC(=O)C=C1CC[C@@H]1[C@@H]2[C@@H](O)C[C@@]2(C)[C@H]1CC[C@]2(O)C(=O)CO` [Hydrocortisone (cortisol), Hydrocortisone], in data set [1] (cocultured liver MPS), the differentiated function entry is “enhanced” and the inflammatory response entry is recorded as “suppressed”. The CYP450 activity result in data set [1] (cultures up to 21 days) was “sensitive to hydrocortisone levels”.
